Data taken from US10065948B2, “Histone deacetylase inhibitors and compositions and methods of use thereof” (CHDI Foundation, Inc., priority 2014, dated 2018).
pIC50: −log10 of the molar value.

What was measured:
[1] = target: Histone Deacetylase 4 (HDAC4) catalytic domain (Homo sapiens (Human), UniProt P56524); test: Biochemical HDAC inhibition assay, fluorogenic substrate Boc-Lys(Tfa)-AMC
Description: The potency of compounds is quantified by measuring the Histone Deacetylase 4 (HDAC4) catalytic domain enzymatic activity using the fluorogenic substrate, Boc-Lys(Tfa)-AMC. The substrate is deacetylated to Boc-Lys-AMC by HDAC4. Cleavage by trypsin results in the release of the fluorophore AMC from the deacetylated substrate. The fluorescence of the sample is directly related to the histone deacetylase activity in the sample.
Stocks of 60 μL aliquots of the 10 mM compound in DMSO are prepared and stored at −20° C. From one stock aliquot of each compound to be tested and the reference compound, a 16-point serial dilution is prepared according to Table 1 using a 125 μL 16-channel Matrix multi-channel pipette (Matrix Technologies Ltd).
2 μL (200×) of each diluted solution and each control (full activity: 100% DMSO alone or full inhibition 1 mM) is stamped into V-bottomed polypropylene 384-well compound plates using either the Bravo (384-well head from Agilent) or 12.5 μL 16-channel Matrix multi-channel pipette (Matrix Technologies Ltd). Each well with the 200× compound solution is diluted 1:20 by the addition of 38 μL assay buffer+DMSO (10.5% DMSO, 45 mM Tris-HCl, 123 mM NaCl, 2.4 mM KCl, and 0.9 mM MgCl2 at pH 8.0 and equilibrated to room temperature).
The HDAC4 catalytic domain enzyme is human catalytic domain HDAC4 protein (amino acids 648-1032) with a C-terminal 6× histidine tag, produced by BioFocus. A working solution of enzyme is prepared from a 500 μg/mL stock aliquot of HDAC4 catalytic domain (thawed on ice) diluted to 0.2 μg/mL with assay buffer (50 mM Tris-HCl, 137 mM NaCl, 2.7 mM KCl, and 1 mM MgCl2 at pH 8 and equilibrated to room temperature) just prior to the addition of the enzyme to the assay.
5× (50 μM) substrate is prepared just prior to the addition to the assay. A 1 mM substrate stock is made by diluting a 100 mM Boc-Lys(Tfa)-AMC in DMSO solution 1:100 by adding it drop-wise to assay buffer (equilibrated to room temperature) while vortexing at slow speed to prevent precipitation. The 5× substrate is prepared by diluting the 1 mM substrate solution 1:20 by adding it drop-wise to assay buffer (equilibrated to room temperature) while vortexing at slow speed to prevent precipitation.
3× (30 μM) Developer/Stop Solution is prepared just prior to addition to the plate by diluting a stock solution of 10 mM reference compound 1:333 in 25 mg/mL trypsin (PAA Laboratories Ltd.) equilibrated to room temperature.
5 μL of each solution of 1:20 diluted compound from above is transferred to a clear bottomed, black, 384-well assay plate using the Bravo or the Janus (384-well MDT head from Perkin Elmer). Using a 16-channel Matrix multi-channel pipette, 35 μL of the working solution of HDAC4 catalytic domain enzyme (0.2 μg/mL in assay buffer) is transferred to the assay plate. […] The assay plate is then shaken for two minutes on an orbital shaker at 900 rpm (rotations per minute). Next the plate is incubated for 15 minutes at 37° C. The reaction is stopped by adding 25 μL of 3× (30 μM) developer/stop solution to the assay plates using either the Bravo, Janus or a 16-channel Matrix multi-channel pipette. Assay plates are then shaken for 5 minutes on an orbital shaker at 1200 rpm. Next, the assay plates are incubated at 37° C. for 1 hour in a tissue culture incubator. Finally, the fluorescence is measured (Excitation: 355 nm, Emission: 460 nm) using PerkinElmer EnVision in top read mode.

[2] = test system: cellular histone deacetylase enzymatic activity in Jurkat E6-1 cells; test: Inhibition of cellular HDAC activity, Boc-Lys(Tfa)-AMC substrate (Cell Lys-TFA); format: cell-based
Outline: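 Jurkat E6-1 cells (75,000/well) were treated with a 16-point compound dilution for 2 h at 37 °C, then exposed to Boc-Lys(Tfa)-AMC for 3 h. Lysis buffer containing trypsin was added overnight (15-16 h), and AMC fluorescence was read at Ex 355/Em 460 nm.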

[3] = test system: cellular histone deacetylase activity (Lys-Ac); test: Inhibition of cellular HDAC activity (Cell Lys-Ac); format: cell-based; conditions: Lys-Ac substrate
[4] = Homo sapiens, Jurkat E6.1, Lys-TFA substrate

Sequence of Histone Deacetylase 4 (HDAC4) catalytic domain (P56524 648-1032): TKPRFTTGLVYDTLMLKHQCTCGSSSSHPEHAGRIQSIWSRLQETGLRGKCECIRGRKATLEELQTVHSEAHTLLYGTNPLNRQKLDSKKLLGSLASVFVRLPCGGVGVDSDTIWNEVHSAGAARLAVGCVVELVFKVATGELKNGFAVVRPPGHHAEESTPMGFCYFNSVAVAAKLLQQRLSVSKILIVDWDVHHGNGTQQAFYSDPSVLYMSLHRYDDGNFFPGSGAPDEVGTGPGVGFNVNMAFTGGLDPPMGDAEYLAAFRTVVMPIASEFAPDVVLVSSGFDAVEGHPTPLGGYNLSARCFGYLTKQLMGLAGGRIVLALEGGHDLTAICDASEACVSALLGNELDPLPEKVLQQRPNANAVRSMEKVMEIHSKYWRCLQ

pIC50 [1] | pIC50 [2, 4] | pIC50 [3] | pIC50 ([2]; Lys-TFA substrate) | Structure (SMILES)
6.83 | 6.76 | < 4.30 |  | Cc1c(F)cccc1[C@]1(C(=O)NO)Cc2cn(-c3ccc(OC(F)F)cc3)nc2C1 [Example 21, (S)-2-(4-(difluoromethoxy)phenyl)-5-(3-fluoro-2-methylphenyl)-N-hydroxy-2,4,5,6-tetrahydrocyclopenta[c]pyrazole-5-carboxamide]
7.55 | 7.19 | < 4.30 |  | Cc1cccc(-n2ncc3c2C[C@](C(=O)NO)(c2cccc(F)c2C)C3)c1 [Example 24, (S)-5-(3-Fluoro-2-methylphenyl)-N-hydroxy-1-(m-tolyl)-1,4,5,6-tetrahydrocyclopenta[c]pyrazole-5-carboxamide]
7.12 | 6.80 | < 4.30 |  | Cc1cccc(-n2cc3c(n2)C[C@](C(=O)NO)(c2cccc(F)c2C)C3)c1 [Example 25, (S)-5-(3-fluoro-2-methylphenyl)-N-hydroxy-2-(m-tolyl)-2,4,5,6-tetrahydrocyclopenta[c]pyrazole-5-carboxamide]
7.24 | 7.15 | < 4.30 |  | Cc1cnccc1-n1ncc2c1C[C@](C(=O)NO)(c1cccc(F)c1C)C2 [Example 26, (S)-5-(3-Fluoro-2-methylphenyl)-N-hydroxy-1-(3-methylpyridin-4-yl)-1,4,5,6-tetrahydrocyclopenta[c]pyrazole-5-carboxamide]
7.28 | 6.94 | < 4.30 |  | Cc1cnccc1-n1cc2c(n1)C[C@](C(=O)NO)(c1cccc(F)c1C)C2 [Example 27, (S)-5-(3-fluoro-2-methylphenyl)-N-hydroxy-2-(3-methylpyridin-4-yl)-2,4,5,6-tetrahydrocyclopenta[c]pyrazole-5-carboxamide]
7.19 | 7.16 | < 4.30 |  | Cc1c(F)cccc1[C@]1(C(=O)NO)Cc2cn(-c3ncccc3Cl)nc2C1 [Example 28, (S)-2-(3-Chloropyridin-2-yl)-5-(3-fluoro-2-methylphenyl)-N-hydroxy-2,4,5,6-tetrahydrocyclopenta[c]pyrazole-5-carboxamide]
6.98 | 7.16 | < 4.30 |  | Cc1c(F)cccc1[C@]1(C(=O)NO)Cc2cn(-c3ncccc3F)nc2C1 [Example 29, (S)-5-(3-Fluoro-2-methylphenyl)-2-(3-fluoropyridin-2-yl)-N-hydroxy-2,4,5,6-tetrahydrocyclopenta[c]pyrazole-5-carboxamide]
6.00 | 5.77 | < 4.30 |  | Cc1c(F)cccc1[C@@]1(C(=O)NO)Cc2cnn(-c3ccccc3)c2C1 [Example 30, (R)-5-(3-Fluoro-2-methylphenyl)-N-hydroxy-1-phenyl-1,4,5,6-tetrahydrocyclopenta[c]pyrazole-5-carboxamide]
6.22 |  | < 4.30 | 6.43 | Cc1c(F)cccc1C1(C(=O)NO)CCc2nn(Cc3ccc(F)cc3)cc2C1 (stereo not drawn) [Example 36, 5-(3-Fluoro-2-methylphenyl)-1-(4-fluorobenzyl)-N-hydroxy-4,5,6,7-tetrahydro-1H-indazole-5-carboxamide and 5-(3-fluoro-2-methylphenyl)-2-(4-fluorobenzyl)-N-hydroxy-4,5,6,7-tetrahydro-2H-indazole-5-carboxamide]
5.36 | 5.74 | < 4.30 |  | Cc1c(F)cccc1C1(C(=O)NO)CCc2nn(CC(F)(F)F)c(C3CC3)c2C1 (stereo not drawn) [Example 39, 3-Cyclopropyl-5-(3-fluoro-2-methylphenyl)-N-hydroxy-2-(2,2,2-trifluoroethyl)-4,5,6,7-tetrahydro-2H-indazole-5-carboxamide]
5.80 | 6.24 | < 4.30 |  | Cc1c(F)cccc1C1(C(=O)NO)CCc2nc(C3CC3)[nH]c(=O)c2C1 (stereo not drawn) [Example 40, 2-Cyclopropyl-6-(3-fluoro-2-methylphenyl)-N-hydroxy-4-oxo-3,4,5,6,7,8-hexahydroquinazoline-6-carboxamide]
6.72 | 5.80 | < 4.30 |  | Cc1c(F)cccc1C1(C(=O)NO)CCc2nc(NS(=O)(=O)c3ccccc3)sc2C1 (stereo not drawn) [Example 41, 6-(3-Fluoro-2-methylphenyl)-N-hydroxy-2-(phenylsulfonamido)-4,5,6,7-tetrahydrobenzo[d]thiazole-6-carboxamide]
6.11 | 6.49 | < 4.30 |  | Cc1c(F)cccc1C1(C(=O)NO)CCc2nc(C3CC3)sc2C1 (stereo not drawn) [Example 42, 2-Cyclopropyl-6-(3-fluoro-2-methylphenyl)-N-hydroxy-4,5,6,7-tetrahydrobenzo[d]thiazole-6-carboxamide]
5.72 | 6.18 | < 4.30 |  | Cc1c(F)cccc1C1(C(=O)NO)CCc2nc(-c3cncnc3)sc2C1 (stereo not drawn) [Example 43, 6-(3-Fluoro-2-methylphenyl)-N-hydroxy-2-(pyrimidin-5-yl)-4,5,6,7-tetrahydrobenzo[d]thiazole-6-carboxamide]
6.00 | 5.82 | < 4.30 |  | Cc1c(F)cccc1C1(C(=O)NO)CCc2ncsc2C1 (stereo not drawn) [Example 44, 6-(3-Fluoro-2-methylphenyl)-N-hydroxy-4,5,6,7-tetrahydrobenzo[d]thiazole-6-carboxamide]
5.43 | 5.59 | < 4.30 |  | Cc1c(F)cccc1C1(C(=O)NO)CCc2ncncc2C1 (stereo not drawn) [Example 45, 6-(3-Fluoro-2-methylphenyl)-N-hydroxy-5,6,7,8-tetrahydroquinazoline-6-carboxamide]
5.80 | 6.12 | < 4.30 |  | Cc1c(F)cccc1C1(C(=O)NO)CCc2nc(C3CC3)ncc2C1 (stereo not drawn) [Example 46, 2-Cyclopropyl-6-(3-fluoro-2-methylphenyl)-N-hydroxy-5,6,7,8-tetrahydroquinazoline-6-carboxamide]
5.49 | 5.96 | < 4.30 |  | Cc1c(F)cccc1C1(C(=O)NO)CCc2nc(-c3ccccc3)ncc2C1 (stereo not drawn) [Example 47, 6-(3-Fluoro-2-methylphenyl)-N-hydroxy-2-phenyl-5,6,7,8-tetrahydroquinazoline-6-carboxamide]
6.81 | 7.22 | < 4.30 |  | Cc1c(F)cccc1[C@]1(C(=O)NO)Cc2cnc(-c3ccccc3Cl)nc2C1 [Example 48, (S)-2-(2-Chlorophenyl)-6-(3-fluoro-2-methylphenyl)-N-hydroxy-6,7-dihydro-5H-cyclopenta[d]pyrimidine-6-carboxamide]
6.99 | 6.60 | < 4.30 |  | Cc1c(F)cccc1[C@]1(C(=O)NO)CCc2nc(-c3ccccc3Cl)ncc21 [Example 49, (R)-2-(2-chlorophenyl)-5-(3-fluoro-2-methylphenyl)-N-hydroxy-6,7-dihydro-5H-cyclopenta[d]pyrimidine-5-carboxamide]
7.17 | 6.64 | < 4.30 |  | Cc1c(F)cccc1[C@]1(C(=O)NO)Cc2cnn(C(C)C)c2C1 [Example 53, (S)-5-(3-Fluoro-2-methylphenyl)-N-hydroxy-1-isopropyl-1,4,5,6-tetrahydrocyclopenta[c]pyrazole-5-carboxamide]
6.06 | 5.74 | < 4.30 |  | Cc1c(F)cccc1[C@]1(C(=O)NO)Cc2cnc(C(F)(F)F)nc2C1 [Example 56, (S)-6-(3-Fluoro-2-methylphenyl)-N-hydroxy-2-(trifluoromethyl)-6,7-dihydro-5H-cyclopenta[d]pyrimidine-6-carboxamide]
